Series [1] concerns the target T1, purified catalytic domain of recombinant human TACE (rhTACEc) (Homo sapiens, UniProt P78536, N452Q/S266A).
T1 construct: 6xHis (C); made in house; host or cells: baculovirus/Hi5 insect cells
Nature of the series: TACE kinetic assay: cleavage of internally quenched peptide substrate TNF-FRET 2 (Ki). The series is classed as biochemical. Particulars: TNF-FRET 2 substrate.

Series [2] relates to TNF-α production from human whole blood. Nature of the series: Inhibition of TNF-α production from human whole blood (hWBA), LPS stimulated, ELISA. The series is classed as cell-based. Conditions: Homo sapiens, human whole blood diluted 1:1, LPS stimulated, TNF-α by ELISA, read-out: hWBA (IC50).
A short description of series [3]: Area under the curve determinations of plasma levels in rats (rrAUC), oral 10 mg/kg. The series is classed as in vivo. Conditions: rat, read-out: RR AUC (rapid rat AUC, rrAUC).
Where [4] appears, read: plasma, blood collected 0.5-6 h post-dosing.

Structures are written as SMILES. Like-named read-outs stand apart in the source and are kept apart here.

T1 sequence (P78536 215-477 S266A/N452Q): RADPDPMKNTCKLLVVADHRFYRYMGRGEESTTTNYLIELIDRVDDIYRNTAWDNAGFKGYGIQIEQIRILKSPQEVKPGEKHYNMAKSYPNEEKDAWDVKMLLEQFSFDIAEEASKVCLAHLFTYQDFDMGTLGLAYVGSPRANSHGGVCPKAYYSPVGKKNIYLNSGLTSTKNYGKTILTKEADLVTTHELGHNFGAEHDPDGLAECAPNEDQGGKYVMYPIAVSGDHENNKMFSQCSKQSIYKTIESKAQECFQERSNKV

As for `COc1ccc2c(c1)C(=O)N(C[C@@]1(c3cc4ccc(N)nc4o3)NC(=O)NC1=O)C2` [Compound 2250], the Ki (commonly a dissociation constant, usually derived from enzyme kinetics or from competition with a known ligand) in series [1] (read-out: Ki) is 0.433 nM. The IC50 (in general, the concentration at which inhibition is half-maximal) in series [2] (3.5 h, 3.5 h) is 218 nM. Further, the AUC (as a rule, the area under the concentration-time curve, a measure of exposure) in series [3] (plasma 0.5-6 h post-dosing) was 0.391 µM·h.

Consider `COc1ccc2c(c1)C(=O)N(C[C@@]1(c3cc4cnc(N5CCNC5=O)cc4o3)NC(=O)NC1=O)C2` [Compound 2252], for which the Ki in series [1] (Ki) is 1.79 nM. In addition, the IC50 in series [2] (3.5 h, 3.5 h) was 206 nM. In series [3] (plasma 0.5-6 h post-dosing), the AUC is 1.18 µM·h.

Regarding `COc1ccc2c(c1)C(=O)N(C[C@@]1(c3cc4cc(-c5cccnc5)cnc4o3)NC(=O)NC1=O)C2` [Compound 2254], in series [1] (read-out: Ki), the Ki came to 0.599 nM. Besides, the half-maximal inhibitory concentration (IC50) in series [2] (3.5 h, 3.5 h) came out at 1670 nM. In addition, in series [3] (plasma 0.5-6 h post-dosing), the AUC was 1.77 µM·h.

Take `COc1ccc2c(c1)C(=O)N(C[C@@]1(c3cc4cc(-c5ccncc5)cnc4o3)NC(=O)NC1=O)C2` [Compound 2255]: in series [1] (read-out: Ki), the inhibition constant Ki amounted to 0.523 nM. Further, the half-inhibitory concentration (IC50) in series [2] (3.5 h, 3.5 h) turned out to be 396 nM. The AUC in series [3] (plasma 0.5-6 h post-dosing) worked out at 0.527 µM·h.

For the compound `COc1ccc2c(c1)C(=O)N(C[C@@]1(c3cc4c(C)nc(C)cc4o3)NC(=O)NC1=O)C2` [Compound 2257], the Ki in series [1] (read-out: Ki) came out at 0.53 nM. Further, the IC50 in series [2] (3.5 h, 3.5 h) came out at 676 nM. The AUC in series [3] (plasma 0.5-6 h post-dosing) is 4.23 µM·h.

Take `COc1ccc2c(c1)C(=O)N(C[C@@]1(c3cc4cnc(C)cc4o3)NC(=O)NC1=O)C2` [Compound 2258]: the Ki in series [1] (read-out: Ki) was found to be 0.366 nM. Also, in series [2] (3.5 h, 3.5 h), the IC50 was determined as 345 nM. Besides, the AUC in series [3] (plasma 0.5-6 h post-dosing) came out at 19.1 µM·h.

On to `COc1ccc2c(c1)C(=O)N(C[C@@]1(c3cc4c(o3)CCN(C)C4)NC(=O)NC1=O)C2` [Compound 2263], for which the Ki in series [1] (read-out: Ki) worked out at 7.71 nM. Besides, the IC50 in series [2] (3.5 h, 3.5 h) is at least 1000 nM. In addition, the area under the curve (AUC) in series [3] (plasma 0.5-6 h post-dosing) was found to be 0.24 µM·h.

Consider `COc1ccc2c(c1)C(=O)N(C[C@@]1(c3cc4c(o3)CN(C)CC4)NC(=O)NC1=O)C2` [Compound 2264], for which, in series [1] (read-out: Ki), the Ki was found to be 0.417 nM. For the same compound, in series [2] (3.5 h, 3.5 h), the IC50 is 1180 nM. Moreover, in series [3] (plasma 0.5-6 h post-dosing), the AUC came to 0.623 µM·h.

As to `COCCN1CCc2oc([C@]3(CN4Cc5ccc(OC)cc5C4=O)NC(=O)NC3=O)cc2C1` [Compound 2267], the inhibition constant Ki in series [1] (read-out: Ki) turned out to be 5.27 nM. Besides, the 50% inhibitory concentration (IC50) in series [2] (3.5 h, 3.5 h) is 1040 nM. Besides, in series [3] (plasma 0.5-6 h post-dosing), the AUC came out at 0.278 µM·h.

On to `COc1ccc2c(c1)C(=O)N(C[C@@]1(c3cc4cnc(C(F)(F)F)cc4o3)NC(=O)NC1=O)C2` [Compound 2269], for which, in series [1] (Ki), the Ki stood at 0.497 nM. For the same compound, the concentration for half-maximal inhibition (IC50) in series [2] (3.5 h, 3.5 h) came to 1620 nM. Also, the AUC in series [3] (plasma 0.5-6 h post-dosing) was found to be 19.3 µM·h.

Consider `COc1ccc2c(c1F)C(=O)N(C[C@@]1(c3cc4cccnc4o3)NC(=O)NC1=O)C2` [Compound 2271], for which the Ki in series [1] (read-out: Ki) came to 0.36 nM. The IC50 in series [2] (3.5 h, 3.5 h) was 218 nM. For the same compound, in series [3] (plasma 0.5-6 h post-dosing), the AUC was determined as 10.6 µM·h.

Take `COc1ccc2c(c1F)C(=O)N(C[C@@]1(c3cc4ccncc4o3)NC(=O)NC1=O)C2` [Compound 2272]: the Ki in series [1] (read-out: Ki) was 0.3 nM. Further, the IC50 in series [2] (3.5 h, 3.5 h) came to 167 nM. The exposure (AUC) in series [3] (plasma 0.5-6 h post-dosing) came to 2.79 µM·h.

Consider `COc1ccc2c(c1)C(=O)N(C[C@@]1(c3cc4c(C5=NCCN5)nccc4o3)NC(=O)NC1=O)C2` [Compound 2274], for which the Ki in series [1] (read-out: Ki) amounted to 2 nM. Besides, in series [2] (3.5 h, 3.5 h), the IC50 worked out at 2240 nM. Further, the AUC in series [3] (plasma 0.5-6 h post-dosing) amounted to 0.033 µM·h.

On to `COc1ccc2c(c1F)C(=O)N(C[C@@]1(c3cc4cc(F)cnc4o3)NC(=O)NC1=O)C2` [Compound 2277], for which, in series [1] (Ki), the inhibitory constant (Ki) was 0.505 nM. For the same compound, the IC50 in series [2] (3.5 h, 3.5 h) amounted to 499 nM. Besides, the AUC in series [3] (plasma 0.5-6 h post-dosing) worked out at 26.2 µM·h.

Consider `COc1ccc2c(c1)C(=O)N(C[C@@]1(c3cc4c(Cl)nccc4o3)NC(=O)NC1=O)C2` [Compound 2278], for which the Ki in series [1] (read-out: Ki) came out at 0.637 nM. Moreover, the IC50 in series [2] (3.5 h, 3.5 h) was determined as 260 nM. The AUC in series [3] (plasma 0.5-6 h post-dosing) is 12.1 µM·h.

As for `COc1ccc2c(c1)C(=O)N(C[C@@]1(c3cc4c(N5CCOCC5)nccc4o3)NC(=O)NC1=O)C2` [Compound 2281], the Ki in series [1] (read-out: Ki) turned out to be 0.458 nM. For the same compound, in series [2], the IC50 came out at 510 nM. Moreover, in series [3] (setting [4]), the AUC was found to be 0.749 µM·h.

As for `COc1ccc2c(c1)C(=O)N(C[C@@]1(c3cc4c(C)nccc4o3)NC(=O)NC1=O)C2` [Compound 2284], in series [1] (read-out: Ki), the Ki came out at 0.5 nM. In series [2], the IC50 came to 198 nM. Moreover, the AUC in series [3] (setting [4]) stood at 2.8 µM·h.

Values taken from US8569336B2, “Compounds for the treatment of inflammatory disorders” (priority 2008, dated 2013).
